Where a SMILES comes first, the peptide text is derived from it. [ ]: non-standard residue; d: D form. pGlu = O=C1CC[C@@H](C(=O)O)N1; Thz = O=C(O)[C@@H]1CSCN1
Assay: GHS categories as the set defines them, by LD50: 1 up to 5, 2 up to 50, 3 up to 300, 4 up to 2000, 5 above 2000 mg/kg
Details: rat; in vivo; po
Source text: […]The data set underlying the modeling effort for this project was initially compiled by NICEATM and U.S. EPA’s CCTE. Briefly, LD50 data were collected from rat acute oral systemic toxicity tests, including limit tests, ranges/confidence intervals, and discrete LD50 values. The full data set included 21,200 LD50 entries for 15,688 substances. […] Data were reviewed to ensure that LD50 values with obvious errors in the extracted data such as unit conversion errors (e.g., comma and decimal separator misplacements) were either fixed or removed. After this review, 16,209 LD50 values remained. Many of the chemicals represented had multiple LD50 entries, requiring that a single representative value per Chemical Abstracts Service Registry Number (CASRN) identifier be defined to facilitate modeling efforts. Based on ATWG feedback and to define the representative LD50 as a protective value while accounting for the distribution across multiple LD50s, the median of the lowest quartile was computed using only discrete LD50 values (omitting limit test data and range and confidence interval data). A detailed summary of the data compilation is available online on the NICEATM webpage dedicated to the collaborative modeling project (NTP 2020).
[…][…] For categorical designations, limit test and range/confidence interval LD50 data were integrated wherever possible. As such, the number of chemicals with end point values/calls varies across the modeling end points (Table 3) based on whether chemicals had representative LD50 values and/or other data. If a chemical had both, the representative value was used to determine categorical calls rather than limit test data. Some data were useable only for certain end points and categories depending on the thresholds. For example, ranges that spanned multiple hazard categories were considered only for the binary (very toxic/nontoxic) end points and omitted from rendering a determination for hazard category assignment.
[…]The final data set comprising 11,992 chemicals was split into training and evaluation sets […], respectively. This process was performed semirandomly by ordering chemicals based on the five end points (categorical and continuous LD50 values) and partitioning every fourth record into the evaluation set accordingly. This approach was taken to ensure an equivalent distribution of the LD50 values and the different hazard categories between the training and the evaluation sets without supervised sampling of the chemicals based on structures (Figure 1A). The sources of the chemical structures were also kept equivalent between the two sets, with chemical structures obtained from DSSTox, being the highest quality, representing over 75% of each set (Figure 1B).

Row | Compound | GHS category
1 | CC(C)(C)c1ccc(C(=O)CCCN2CCC(OC(c3ccccc3)c3ccccc3)CC2)cc1 | 5
2 | COc1cc(OC)nc(NC(=O)NS(=O)(=O)c2c(C(=O)O)cnn2C)n1 | 5
3 | O=C1CC(=O)NC(=O)N1 | 5
4 | CC1CC(OC(=O)COc2ccc(F)cc2)CC(C)(C)C1 (centres undefined) | 5
5 | N#CCCNCCCCCCNCCC#N | 5
6 | Nc1c(Oc2ccccc2)cc(O)c2c1C(=O)c1ccccc1C2=O | 5
7 | CCCCC/C=C\C=C\C(=O)OCC | 5
8 | CC(C)c1cc(C(C)C)cc(C(C)C)c1 | 5
9 | COc1c(C)c(O)c(C)c(C)c1C(=O)Oc1c(C)c(C)c(C(=O)Oc2c(C)c(C)c(C(=O)O)c(OC)c2C)c(O)c1C | 4
10 | CC1CC(OC(=O)C(C)Oc2ccccc2Cl)CC(C)(C)C1 (centres undefined) | 5
11 | OC1(c2cccs2)c2ccccc2C2=NCCN21 (centres undefined) | 4
12 | COC(=O)c1ccccc1CS(=O)(=O)NC(=O)Nc1nc(OC)cc(OC)n1 | 5
13 | CCOC(=O)CC(CC(C)=O)C(=O)OCC (centres undefined) | 5
14 | CCC(C)(C)OC(=O)N[C@@H](Cc1c[nH]c2ccccc12)C(=O)N[C@@H](CCSC)C(=O)N[C@@H](CC(=O)O)C(=O)N[C@@H](Cc1ccccc1)C(N)=O | 5
15 | CC(C)c1cc(C(C)C)c(N=C=O)c(C(C)C)c1N=C=O | 5
16 | CCCC(=O)c1ccc(N)c(O)c1 | 5
17 | COC(=O)C(C)(C)c1ccc(Br)cc1 | 5
18 | C=CC(=C)CCC=C(C)C | 5
19 | Cc1nc(N)sc1C(=O)NCc1ccccc1 | 4
20 | COCC1COC(Cn2cncn2)(c2cc3ccccc3o2)O1 (centres undefined) | 4
21 | Cc1ccc2nc(-c3ccc(N)cc3)sc2c1S(=O)(=O)O | 5

Row | Compound | GHS category
22 | O=C1CC[C@@H](C(=O)N2CSC[C@H]2C(=O)O)N1 ([pGlu]-[Thz]-OH) | 5
23 | CCOC(=O)c1nn(-c2ccc(OC)cc2)c2c1CCN(c1ccc([N+](=O)[O-])cc1)C2=O | 5
24 | C[C@]12COC(=O)C[C@@H]1CC[C@@H]1[C@@H]2CC[C@@]2(C)[C@H]1CC[C@]2(C)O | 5
25 | CC1Oc2cc(C(=O)c3cccs3)ccc2N(C)C1=O (centres undefined) | 5
26 | O=C1NC(=O)C(c2ccc(O)cc2)N1 (centres undefined) | 5
27 | Nc1ccc(-c2ccc(N)c3c2C(=O)c2ccccc2C3=O)c2c1C(=O)c1ccccc1C2=O | 5
28 | O=C1CN2CCOC2(c2ccccc2F)c2cc(Cl)ccc2N1CCO (centres undefined) | 5
29 | Cc1ccc2c(-c3ccc(F)cc3)nc(=O)n(C(C)C)c2c1 | 5
30 | CCOC(=O)c1cn(C2CC2)c2cc(F)c(F)cc2c1=O | 5
31 | CCCCCCCC[N+](C)(C)[O-] | 5
32 | CC1N=C(c2ccccc2Cl)c2c(ccc(NC(=O)NCCO)c2Br)N(C)C1=O (centres undefined) | 5
33 | C[C@@H]1C[C@H]2C3C[C@H](F)C4=CC(=O)C=CC4(C)[C@@]3(F)[C@@H](O)CC2(C)[C@@]1(O)C(=O)COC(=O)C(C)(C)C (some centres undefined) | 5
34 | CCC(C)(O)CCCC(C)C (centres undefined) | 5
35 | N#Cc1cccc(C2=C3C(=O)NC(c4cccc(C#N)c4)=C3C(=O)N2)c1 | 5
36 | COc1ccc(Cl)cc1NC(=O)CC(C)=O | 5
37 | Clc1cc(Cl)c(OCC#CI)cc1Cl | 5
38 | COc1ccc(C=C(C(=O)Nc2ccccc2C(=O)O)C(=O)Nc2ccccc2C(=O)O)cc1OC | 5
39 | CCOC(=O)NC(=S)Nc1ccccc1NC(=S)NC(=O)OCC | 5
40 | Cc1cccc(Nc2cc(Cl)nc(SCC(=O)NCCO)n2)c1C | 5
41 | CC=CC(=O)OC/C=C(\C)CCC=C(C)C | 5
42 | CCC(=O)O[C@]1(C(=O)CCl)[C@@H](C)C[C@H]2[C@@H]3CCC4=CC(=O)C=C[C@]4(C)[C@@]3(F)[C@@H](O)C[C@@]21C | 5

Row | Compound | GHS category
43 | CSC(C)(C)SC | 5
44 | CCn1ccc(=O)n2nc(-c3cccs3)cc12 | 4
45 | COC(=O)CCC(=O)OC | 5
46 | CC(=O)OC1CCC(NCc2ccccc2N)CC1 (centres undefined) | 5
47 | CCOC(=O)c1ocnc1C | 5
48 | NC(CSCC(=O)O)C(=O)O (centres undefined) | 5
49 | CSc1nnc(C(C)(C)C)c(=O)n1/N=C/C(C)C | 5
50 | C=C(C)C(=O)NCCC[N+](C)(C)C | 5
51 | O=C(NNCc1ccccc1)C(O)C(O)C(O)CO (centres undefined) | 5
52 | CCOc1ccc(C(=O)NCc2ccc(OCCNC)cc2)cc1OCC | 5
53 | CC(=O)O[C@@H]1[C@H](OC(C)=O)[C@@H](C)O[C@H]1n1cc(F)c(N)nc1=O | 5
54 | CC(=O)C=CC=C(C)CCC=C(C)C | 5
55 | CCN(CC)CCOC(=O)c1ccc(-n2c(C)nc3ccccc3c2=O)cc1 | 5
56 | CC12CCC(=O)NC1=CCC1C2CCC2(C)C(C(=O)O)CCC12 (centres undefined) | 5
57 | CN1CC(c2ccno2)CC2c3cccc4[nH]cc(c34)CC21 (centres undefined) | 4
58 | CCC(C#N)(CCN(CC=C(C)C)CC=C(C)C)c1cccc2ccccc12 (centres undefined) | 4
59 | CCOC(=O)C(=O)Nc1cc(SCCOCCOC)ncn1 | 4
60 | CCCCCCCCC(=O)OCC | 5
61 | C=CC(=O)OCCCCCC(C)C | 5
62 | CCOC(C)OCCc1ccccc1 (centres undefined) | 5
63 | Cc1cc(NC(=O)NC(=O)c2c(F)cccc2F)nc(C)c1-c1ccc(Cl)cc1 | 5

Row | Compound | GHS category
64 | Cn1c(=O)c2c(ncn2CC(=O)N2CCOCC2)n(C)c1=O | 5
65 | OC1CCOC1 (centres undefined) | 5
66 | CCCCCCCCCCCCCCCCNP1(=S)OCc2cc([N+](=O)[O-])ccc2O1 (centres undefined) | 3
67 | CCCCC1=NC2(CCCC2)C(=O)N1Cc1ccc(-c2ccccc2C#N)cc1 | 5
68 | Cc1[nH]nc(C(=O)Nc2cccc(C(F)(F)F)c2)c1Br | 5
69 | CCCCCCCC/C=C\CCCCCCCC(=O)OC[C@@H](OC(=O)CCCCCCC/C=C\CCCCCCCC)[C@H]1OC[C@H](O)[C@H]1O | 5
70 | Cc1ccccc1OC(=O)c1cc(Cl)ccc1OC(N)=O | 5
71 | C=CC(C)(O)CCCC(C)CCCC(C)CCCC(C)C (centres undefined) | 5
72 | CN(C)CC(=O)N/N=C/c1c(Cl)nc2n1CCS2 | 4
73 | Cc1ccc(I)cc1Cc1ccc(-c2ccc(F)cc2)s1 | 5
74 | CN1CC(O)N(c2cc(C(C)(C)C)on2)C1=O (centres undefined) | 4
75 | Nc1ncc(Br)cc1O | 5
76 | CC(=O)OC1CN(C)C(=O)N1c1cc(C(C)(C)C)no1 (centres undefined) | 4
77 | CC1N=C(c2ccccc2F)c2c(ccc(NC(=O)NCCO)c2Br)N(C)C1=O (centres undefined) | 5
78 | O=C(O)C1C2C=CC(C2)C1C(=O)O (centres undefined) | 5
79 | O=C1NC(=O)C(c2ccc(O)cc2)(c2ccc(O)c(Cl)c2)N1 (centres undefined) | 5
80 | CN(C)CCCNc1nc2cc(Cl)ccc2o1 | 4
81 | CCCCC(CC)COCOCC(CC)CCCC (centres undefined) | 5
82 | CCOC(=O)c1ccc(NC(=O)CC)cc1NC(=O)c1ccc(C(=O)O)cc1 | 5
83 | CC(C)OC(=O)c1ccccc1OC(N)=O | 5
84 | OC[C@H]1O[C@@H](OC[C@H]2O[C@@H](O[C@@H]3[C@@H](O)[C@H](O)O[C@H](CO)[C@H]3O)[C@H](O)[C@@H](O[C@@H]3O[C@H](CO)[C@@H](O)[C@H](O)[C@H]3O)[C@@H]2O)[C@H](O)[C@@H](O)[C@@H]1O | 4
